One test has as its system CD8+ T cells. The experiment in a line: CD8+ activation in PBMCs: CD107a+ cells as a percentage of total CD8+ T cells after CEFT peptide pool stimulation, flow cytometry. Format: cell-based. As to conditions: PBMCs restimulated with CEFT peptide pool 24 hours, titration of Compound (10b) alone or with αPD-L1. As for the experimental part: (§1) A study was performed to evaluate the effect of the SHP2 inhibitor Compound (10b) alone and in combination with αPD-L1 on T cell cytokine production and killing potential in response to antigenic stimulation. PBMCs from four healthy donors were stimulated with a CEFT peptide pool and treated with vehicle, isotype control, αPD-L1, a titration of Compound (10b), or a titration of Compound (10b) with the addition of either isotype control or αPD-L1. After the initial CEFT stimulation, the cultures were rested and cytokines were added to expand the number of responding CD8+ T cells. Cells were then restimulated with the CEFT peptide pool for 24 hours, and the frequency of CD107a+ cells as a percentage of total CD8+ T cells was assessed by flow cytometry. In addition, at 5 days post stimulation, the supernatents were harvested and the concentration of IFNγ was measured by TR-FRET. FIG. 1A-FIG. 1B show results from this study.
On the technique in general: In flow cytometry, cells or beads pass a laser one at a time.

Another test has as its system IFNγ. Description: IFNγ concentration in PBMC supernatants 5 days post CEFT stimulation, TR-FRET. As to conditions: 5 days after CEFT stimulation; data not shown. In kind it is cell-based. The protocol:
as §1

Another test has as its system CT-26 KRAS D12C KI tumor. As to conditions: CT-26 KRAS D12C KI bearing Balb/c mice, n = 10.

From the text for CT-26 KRAS D12C KI tumor: Animal Receipt and Housing. For the CT-26 CRISPR knock-in KRAS D12C study, protocols and procedures involving the care and use of animals were reviewed and approved by the Charles River Accelerator and Development Lab (CRADL) Institutional Animal Care and Use Committee (IACUC) prior to execution. The animal care and use program has been fully accredited by the Association for Assessment and Accreditation of Laboratory Animal Care International (AAALAC). Balb/c female mice (Envigo; Inotiv Inc.) were ordered, aged six to eight weeks at receipt, and identified by ear notch. Animals were acclimated for a period of eleven days prior to tumor inoculation. For the duration of the acclimation period and throughout the study, mice were group-housed up to five animals per cage in disposable polycarbonate IVC cages (Innovive; San Diego, CA) which consisted of a layer of Alpha-Dri bedding (Sheppard Specialty Papers, Inc., Kalamazoo, MI), a certified enrichment block and diamond-twist, and a certified polycarbonate housing device. Mice were presented with rodent diet pellet and irradiated reverse-osmosis Aquavive® drinking water (Innovive; San Diego, CA), ad libitum. The vivarium temperature was maintained between 20° C. through 26° C. and an environmental humidity between 30% through 70%. The interior room lighting was cycled twelve hours on and twelve hours off.
Tumor Cell Line Culture and Inoculation. […] Cells were screened and confirmed negative for mouse pathogens (IDEXX) and maintained in-vitro at 37° C., 5% CO2 atmosphere in 10% (v/v) fetal bovine serum (FBS, Invitrogen) and 90% (v/v) Roswell Park Memorial Institute (RPMI) 1640 Medium (Gibco) on T150 flasks. For implantation, cells were harvested with 0.25% Trypsin-EDTA (Gibco), washed in DPBS (Gibco), counted and viability determined with trypan blue exclusion using Vi-Cell XR (Beckman Coulter), then brought up in a 1:1 ratio of DPBS:Matrigel to a final concentration of 3×10^6 cells/mL. […]

Regarding `Cc1c(N2CCC3(CC2)CO[C@@H](C)[C@H]3N)nc(C)n(-c2cccc(Cl)c2Cl)c1=O` (atropisomer, axis not shown; (Ra)) [Compound (10b), 6-((3S,4S)-4-amino-3-methyl-2-oxa-8-azaspiro[4.5]decan-8-yl)-3-(Ra)-(2,3-dichlorophenyl)-2,5-dimethyl-4(3H)-pyrimidinone], the “CD107a+CD8+ T cells (frequency of CD107a+ cells as a percentage of total CD8+ T cells)” value in the test with CD8+ T cells (donor 1) is given as “clear Compound (10b) dose-dependent effect”; in the test on CD8+ T cells (donor 2) it was “dose dependent decrease”; in the test with CD8+ T cells (donor 3), “some Compound (10b) effect”; with CD8+ T cells (donor 4), “no Compound (10b) effect”. Moreover, the IFNγ levels entry with IFNγ is “inconsistent across donors”. For the same molecule, the “Median Progression-Free to Tumor Burden Endpoint” value with CT-26 KRAS D12C KI tumor (Formula (10b) 100 mg/kg PO QD×35, ANTIBODY A 10 mg/kg IP Q4D×4, endpoint tumor volume >1,500 mm^3) was found to be 19 Study Day. Moreover, the “Hazard Ratio Treatment/ANTIBODY A (Group 2)” value in the test with CT-26 KRAS D12C KI tumor (Mantel-Haenszel hazard ratio vs ANTIBODY A alone, progression-free to tumor burden endpoint (tumor volume >1,500 mm^3)) worked out at 1.230. The “Hazard Ratio Treatment/Control (Group 1)” value in the test with CT-26 KRAS D12C KI tumor (Mantel-Haenszel hazard ratio vs Vehicle Control + MOPC-21 Isotype, progression-free to tumor burden endpoint (tumor volume >1,500 mm^3)) is 0.261.

Source of the values: patent publication US20250268900A1, “COMBINATION THERAPY USING A SUBSTITUTED PYRIMIDIN-4(3H)-ONE AND NIVOLUMAB AS WELL AS ITS USE IN THE TREATMENT OF CANCER” (BRISTOL-MYERS SQUIBB COMPANY, priority 2022, published 2025).
